Experimental data reported in publication PMC7004140, “In vitro hepatotoxicity of Petasites hybridus extract (Ze 339) depends on the concentration, the cytochrome activity of the cell system, and the species used” (Phytotherapy Research, 2019).

Legend:
Format in all cases: in vitro ADME
Conditions in all cases: petasins 20 μM, 60 min
[1] = target: T1, CYP1A2 (rat) (Rattus norvegicus, UniProt P04799); test: Metabolism by isolated rat CYP1A2
T1 construct: purchased BD Gentest (Switzerland); host or cells: baculovirus expression system
T1 sequence (P04799 1-513): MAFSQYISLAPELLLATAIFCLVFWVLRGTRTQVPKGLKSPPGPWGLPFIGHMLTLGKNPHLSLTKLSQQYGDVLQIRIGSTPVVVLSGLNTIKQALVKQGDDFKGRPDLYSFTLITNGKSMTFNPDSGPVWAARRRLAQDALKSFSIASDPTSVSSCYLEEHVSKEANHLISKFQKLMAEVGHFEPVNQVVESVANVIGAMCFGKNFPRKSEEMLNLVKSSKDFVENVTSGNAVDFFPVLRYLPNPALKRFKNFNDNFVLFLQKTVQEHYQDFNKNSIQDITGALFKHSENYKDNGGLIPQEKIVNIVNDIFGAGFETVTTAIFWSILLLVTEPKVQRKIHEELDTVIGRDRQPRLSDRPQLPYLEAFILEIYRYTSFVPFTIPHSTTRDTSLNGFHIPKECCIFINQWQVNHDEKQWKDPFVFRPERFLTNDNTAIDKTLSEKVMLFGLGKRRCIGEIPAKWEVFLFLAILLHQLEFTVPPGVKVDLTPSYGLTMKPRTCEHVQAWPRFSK
Source text: (§1) The metabolism of petasin, isopetasin, and neopetasin was investigated using three different S9 fractions originating from three different species (isolated from rat, dog, and human liver homogenates containing cytochrome P450 isoforms) and isolated cytochromes of two different species (human and rat; rat analogues of the respective human cytochromes were used). For the expression of the different cytochromes, a baculovirus expression system was used according to supplier's manual. The S9 fractions or respectively single P450 cytochromes were used to mimic the liver metabolism by in vitro incubation.
(§2) The assay was carried out in triplicate in 1.5 ml glass vials with a final concentration of 20 μM of petasin, isopetasin, and neopetasin. The incubation was performed in a 37°C warm water bath. S9 fractions were thawed slowly on ice. […]
(§3) A mixture of NADPH regeneration systems A (20‐fold) and B (100‐fold), phosphate buffer, and H2O was added, preincubated at 37°C, and shaken gently for 5 min. […] The supernatant was transferred to high‐performance liquid chromatography vials and analyzed by ultra‐performance liquid chromatography mass spectrometry (UPLC/MS). […]

[2] = target: T2, CYP3A1 (rat) (Rattus norvegicus, UniProt P04800); test: Metabolism by isolated rat CYP3A1
T2 construct: purchased BD Gentest (Switzerland); host or cells: baculovirus expression system
T2 sequence (P04800 1-504): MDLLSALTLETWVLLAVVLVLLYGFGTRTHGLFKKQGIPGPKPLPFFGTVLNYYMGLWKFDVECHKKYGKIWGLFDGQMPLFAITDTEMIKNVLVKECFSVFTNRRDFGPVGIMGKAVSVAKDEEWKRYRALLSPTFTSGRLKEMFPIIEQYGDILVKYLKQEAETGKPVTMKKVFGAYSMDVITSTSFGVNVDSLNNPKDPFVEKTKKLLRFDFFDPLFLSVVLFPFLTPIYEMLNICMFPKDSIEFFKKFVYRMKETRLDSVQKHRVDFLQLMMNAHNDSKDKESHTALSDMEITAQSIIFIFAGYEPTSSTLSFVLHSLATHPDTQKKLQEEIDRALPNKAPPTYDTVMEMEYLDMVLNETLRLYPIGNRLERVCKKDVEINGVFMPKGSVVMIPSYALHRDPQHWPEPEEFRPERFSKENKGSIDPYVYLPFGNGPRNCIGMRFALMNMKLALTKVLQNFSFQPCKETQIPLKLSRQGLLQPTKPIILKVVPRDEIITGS
Source text: as §1, §2, §3

[3] = target: T3, CYP2D6 (human) (Homo sapiens, UniProt P10635); test: Metabolism by isolated human CYP2D6
T3 construct: purchased BD Gentest (Switzerland); host or cells: baculovirus expression system
T3 sequence (P10635 whole entry): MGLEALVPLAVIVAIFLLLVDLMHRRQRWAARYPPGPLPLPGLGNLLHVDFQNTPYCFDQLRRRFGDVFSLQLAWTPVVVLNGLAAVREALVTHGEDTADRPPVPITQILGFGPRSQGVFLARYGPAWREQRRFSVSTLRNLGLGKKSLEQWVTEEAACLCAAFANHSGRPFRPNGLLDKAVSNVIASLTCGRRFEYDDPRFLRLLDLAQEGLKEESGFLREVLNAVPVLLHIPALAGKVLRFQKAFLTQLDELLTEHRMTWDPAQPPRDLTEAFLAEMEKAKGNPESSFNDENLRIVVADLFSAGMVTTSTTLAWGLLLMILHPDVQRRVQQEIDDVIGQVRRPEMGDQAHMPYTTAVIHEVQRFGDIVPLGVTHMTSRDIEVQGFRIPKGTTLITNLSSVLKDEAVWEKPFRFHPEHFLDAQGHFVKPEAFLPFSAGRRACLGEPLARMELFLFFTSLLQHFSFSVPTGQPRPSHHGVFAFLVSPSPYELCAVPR
Source text: as §1, §2, §3

[4] = target: T4, CYP2C9 (human) (Homo sapiens, UniProt P11712); test: Metabolism by isolated human CYP2C9
T4 construct: purchased BD Gentest (Switzerland); host or cells: baculovirus expression system
T4 sequence (P11712 whole entry): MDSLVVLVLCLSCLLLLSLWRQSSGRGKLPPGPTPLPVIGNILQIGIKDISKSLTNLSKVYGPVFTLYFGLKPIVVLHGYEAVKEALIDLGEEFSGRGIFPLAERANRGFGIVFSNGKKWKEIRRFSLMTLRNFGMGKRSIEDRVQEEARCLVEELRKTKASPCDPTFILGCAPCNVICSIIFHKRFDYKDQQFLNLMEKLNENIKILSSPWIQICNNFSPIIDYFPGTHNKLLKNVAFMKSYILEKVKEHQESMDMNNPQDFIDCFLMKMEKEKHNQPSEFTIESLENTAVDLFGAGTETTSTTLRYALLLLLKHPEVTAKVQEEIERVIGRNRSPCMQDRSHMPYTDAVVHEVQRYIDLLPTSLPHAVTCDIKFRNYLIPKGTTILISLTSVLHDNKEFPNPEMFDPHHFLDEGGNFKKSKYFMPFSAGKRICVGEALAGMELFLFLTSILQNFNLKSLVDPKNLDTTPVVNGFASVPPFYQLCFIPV
Source text: as §1, §2, §3

SMILES	extent of metabolism by CYP1A2 (rat) [1] [%]	extent of metabolism by CYP3A1 (rat) [2] [%]	extent of metabolism by CYP2D6 (human) [3] [%]	extent of metabolism by CYP2C9 (human) [4] [%]
C/C=C(/C)C(=O)O[C@@H]1CCC2=CC(=O)C(=C(C)C)C[C@]2(C)[C@H]1C [isopetasin]	< 1	–	–	–
C=C(C)[C@H]1C[C@@]2(C)C(=CC1=O)CC[C@@H](OC(=O)/C(C)=C\C)[C@@H]2C [neopetasin]	–	78	–	–
C=C(C)[C@@H]1C[C@@]2(C)C(=CC1=O)CC[C@@H](OC(=O)/C(C)=C\C)[C@@H]2C [petasin]	43	37	80.2	51
